Results from paper PMC8550792, “Evolution of kinase polypharmacology across HSP90 drug discovery” (Cell Chemical Biology, 2021).
Read-outs that look alike come from different tables or passages of the source.

Assays:
Assay in all cases: biochemical
Assay type in all cases: biochemical
382 unique human kinases [1] = target: T1, 382 unique human kinases (Homo sapiens, UniProt Q9BXA7); settings: STK22D/TSSK1, 10 uM; for remaining activity at 10 µM: read-out: % Enzyme Activity (relative to DMSO controls)
T1 construct: purchased Reaction Biology (HotSpot contract assay)
T1 sequence (Q9BXA7 1-367): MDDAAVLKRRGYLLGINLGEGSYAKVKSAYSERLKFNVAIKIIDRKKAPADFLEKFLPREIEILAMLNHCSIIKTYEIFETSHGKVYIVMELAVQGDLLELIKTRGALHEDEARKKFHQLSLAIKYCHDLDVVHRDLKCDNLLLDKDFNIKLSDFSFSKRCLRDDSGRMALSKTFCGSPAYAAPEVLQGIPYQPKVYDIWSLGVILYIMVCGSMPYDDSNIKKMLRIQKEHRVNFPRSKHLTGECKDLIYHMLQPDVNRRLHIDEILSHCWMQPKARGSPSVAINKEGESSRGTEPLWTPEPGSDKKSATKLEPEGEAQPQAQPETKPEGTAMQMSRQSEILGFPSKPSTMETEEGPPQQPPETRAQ

382 unique human kinases [2] = target: T2, 382 unique human kinases (Homo sapiens, UniProt Q9P286); settings: PAK5, compound at 10 uM, duplicate values; for remaining activity at 10 µM: read-out: % Enzyme Activity (relative to DMSO controls)
T2 construct: purchased Reaction Biology (HotSpot contract assay)
T2 sequence (Q9P286 whole entry): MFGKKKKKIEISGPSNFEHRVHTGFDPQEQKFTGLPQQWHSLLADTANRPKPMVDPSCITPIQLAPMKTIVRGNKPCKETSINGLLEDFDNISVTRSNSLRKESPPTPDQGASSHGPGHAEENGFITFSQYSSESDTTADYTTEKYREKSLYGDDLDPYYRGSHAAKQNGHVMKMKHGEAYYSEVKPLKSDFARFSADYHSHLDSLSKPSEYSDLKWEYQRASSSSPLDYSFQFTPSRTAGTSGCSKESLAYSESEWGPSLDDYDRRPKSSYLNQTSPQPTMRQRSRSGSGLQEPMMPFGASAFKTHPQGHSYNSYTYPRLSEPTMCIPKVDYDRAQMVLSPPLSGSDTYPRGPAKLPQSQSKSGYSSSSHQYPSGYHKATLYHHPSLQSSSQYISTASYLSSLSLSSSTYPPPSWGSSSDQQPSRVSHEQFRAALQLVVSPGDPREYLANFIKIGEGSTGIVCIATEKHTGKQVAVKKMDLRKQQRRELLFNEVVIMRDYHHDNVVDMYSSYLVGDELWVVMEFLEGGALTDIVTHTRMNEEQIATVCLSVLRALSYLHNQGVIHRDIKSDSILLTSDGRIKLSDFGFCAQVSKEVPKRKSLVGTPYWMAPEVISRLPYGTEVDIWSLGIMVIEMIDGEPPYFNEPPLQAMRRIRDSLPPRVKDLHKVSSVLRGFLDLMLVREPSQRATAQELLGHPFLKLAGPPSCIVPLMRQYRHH

382 unique human kinases [3] = target: T3, 382 unique human kinases (Homo sapiens, UniProt P49137); settings: MAPKAPK2, compound at 10 uM, duplicate values; for remaining activity at 10 µM: read-out: % Enzyme Activity (relative to DMSO controls)
T3 construct: purchased Reaction Biology (HotSpot contract assay)
T3 sequence (P49137 whole entry): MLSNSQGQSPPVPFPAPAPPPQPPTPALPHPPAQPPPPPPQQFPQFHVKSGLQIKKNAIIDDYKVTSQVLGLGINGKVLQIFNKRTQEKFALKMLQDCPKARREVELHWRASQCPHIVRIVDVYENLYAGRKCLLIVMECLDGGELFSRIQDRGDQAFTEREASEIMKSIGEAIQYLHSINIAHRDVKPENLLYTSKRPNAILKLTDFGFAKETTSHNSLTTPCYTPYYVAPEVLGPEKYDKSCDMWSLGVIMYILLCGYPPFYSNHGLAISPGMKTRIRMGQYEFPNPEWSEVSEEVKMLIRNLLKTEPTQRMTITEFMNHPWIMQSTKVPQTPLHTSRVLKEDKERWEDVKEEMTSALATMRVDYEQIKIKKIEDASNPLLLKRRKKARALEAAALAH

382 unique human kinases [4] = target: T4, 382 unique human kinases (Homo sapiens, UniProt P41240); settings: CSK, 10 uM; for remaining activity at 10 µM: read-out: % Enzyme Activity (relative to DMSO controls)
T4 construct: purchased Reaction Biology (HotSpot contract assay)
T4 sequence (P41240 whole entry): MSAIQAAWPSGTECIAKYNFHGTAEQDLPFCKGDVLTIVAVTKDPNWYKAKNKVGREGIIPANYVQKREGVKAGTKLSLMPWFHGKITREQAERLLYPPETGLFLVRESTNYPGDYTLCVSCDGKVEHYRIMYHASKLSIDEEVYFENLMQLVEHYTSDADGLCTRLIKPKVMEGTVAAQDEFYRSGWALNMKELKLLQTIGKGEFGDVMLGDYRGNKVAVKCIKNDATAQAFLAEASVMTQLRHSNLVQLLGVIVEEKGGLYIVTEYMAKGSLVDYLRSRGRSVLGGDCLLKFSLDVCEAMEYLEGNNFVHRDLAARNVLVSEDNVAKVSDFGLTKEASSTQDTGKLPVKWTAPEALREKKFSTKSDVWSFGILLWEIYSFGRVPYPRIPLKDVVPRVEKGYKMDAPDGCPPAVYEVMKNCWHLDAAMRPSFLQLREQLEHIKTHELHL

382 unique human kinases [5] = target: T5, 382 unique human kinases (Homo sapiens, UniProt O95747); settings: kinase OSR1/OXSR1, compound 10 uM; for remaining activity at 10 µM: read-out: % Enzyme Activity (relative to DMSO controls)
T5 construct: purchased Reaction Biology (HotSpot contract assay)
T5 sequence (O95747 whole entry): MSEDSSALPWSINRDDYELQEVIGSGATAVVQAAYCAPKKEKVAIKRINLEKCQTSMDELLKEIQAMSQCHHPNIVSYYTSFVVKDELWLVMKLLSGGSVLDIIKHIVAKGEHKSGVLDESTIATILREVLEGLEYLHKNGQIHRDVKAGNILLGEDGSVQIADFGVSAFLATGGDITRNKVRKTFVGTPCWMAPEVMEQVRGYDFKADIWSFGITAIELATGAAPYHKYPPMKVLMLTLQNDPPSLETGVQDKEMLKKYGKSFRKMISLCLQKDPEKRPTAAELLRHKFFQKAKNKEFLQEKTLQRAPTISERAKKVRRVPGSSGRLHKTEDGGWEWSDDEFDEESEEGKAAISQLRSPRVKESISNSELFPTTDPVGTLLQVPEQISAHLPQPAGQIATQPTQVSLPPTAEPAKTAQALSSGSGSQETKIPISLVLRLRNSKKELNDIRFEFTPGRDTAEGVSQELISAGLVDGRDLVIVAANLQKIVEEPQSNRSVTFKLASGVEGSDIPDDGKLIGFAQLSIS

382 unique human kinases [6] = target: T6, 382 unique human kinases (Homo sapiens, UniProt P54646); settings: for remaining activity at 10 µM: read-out: % Enzyme Activity (relative to DMSO controls)
T6 construct: purchased Reaction Biology (HotSpot contract assay)

382 unique human kinases [7] = target: T7, 382 unique human kinases (Homo sapiens, UniProt Q9UM73, R1275Q); settings: ALK (R1275Q), 10 uM; for remaining activity at 10 µM: read-out: % Enzyme Activity (relative to DMSO controls)
T7 construct: purchased Reaction Biology (HotSpot contract assay)
T7 sequence (Q9UM73 19-1620 R1275Q): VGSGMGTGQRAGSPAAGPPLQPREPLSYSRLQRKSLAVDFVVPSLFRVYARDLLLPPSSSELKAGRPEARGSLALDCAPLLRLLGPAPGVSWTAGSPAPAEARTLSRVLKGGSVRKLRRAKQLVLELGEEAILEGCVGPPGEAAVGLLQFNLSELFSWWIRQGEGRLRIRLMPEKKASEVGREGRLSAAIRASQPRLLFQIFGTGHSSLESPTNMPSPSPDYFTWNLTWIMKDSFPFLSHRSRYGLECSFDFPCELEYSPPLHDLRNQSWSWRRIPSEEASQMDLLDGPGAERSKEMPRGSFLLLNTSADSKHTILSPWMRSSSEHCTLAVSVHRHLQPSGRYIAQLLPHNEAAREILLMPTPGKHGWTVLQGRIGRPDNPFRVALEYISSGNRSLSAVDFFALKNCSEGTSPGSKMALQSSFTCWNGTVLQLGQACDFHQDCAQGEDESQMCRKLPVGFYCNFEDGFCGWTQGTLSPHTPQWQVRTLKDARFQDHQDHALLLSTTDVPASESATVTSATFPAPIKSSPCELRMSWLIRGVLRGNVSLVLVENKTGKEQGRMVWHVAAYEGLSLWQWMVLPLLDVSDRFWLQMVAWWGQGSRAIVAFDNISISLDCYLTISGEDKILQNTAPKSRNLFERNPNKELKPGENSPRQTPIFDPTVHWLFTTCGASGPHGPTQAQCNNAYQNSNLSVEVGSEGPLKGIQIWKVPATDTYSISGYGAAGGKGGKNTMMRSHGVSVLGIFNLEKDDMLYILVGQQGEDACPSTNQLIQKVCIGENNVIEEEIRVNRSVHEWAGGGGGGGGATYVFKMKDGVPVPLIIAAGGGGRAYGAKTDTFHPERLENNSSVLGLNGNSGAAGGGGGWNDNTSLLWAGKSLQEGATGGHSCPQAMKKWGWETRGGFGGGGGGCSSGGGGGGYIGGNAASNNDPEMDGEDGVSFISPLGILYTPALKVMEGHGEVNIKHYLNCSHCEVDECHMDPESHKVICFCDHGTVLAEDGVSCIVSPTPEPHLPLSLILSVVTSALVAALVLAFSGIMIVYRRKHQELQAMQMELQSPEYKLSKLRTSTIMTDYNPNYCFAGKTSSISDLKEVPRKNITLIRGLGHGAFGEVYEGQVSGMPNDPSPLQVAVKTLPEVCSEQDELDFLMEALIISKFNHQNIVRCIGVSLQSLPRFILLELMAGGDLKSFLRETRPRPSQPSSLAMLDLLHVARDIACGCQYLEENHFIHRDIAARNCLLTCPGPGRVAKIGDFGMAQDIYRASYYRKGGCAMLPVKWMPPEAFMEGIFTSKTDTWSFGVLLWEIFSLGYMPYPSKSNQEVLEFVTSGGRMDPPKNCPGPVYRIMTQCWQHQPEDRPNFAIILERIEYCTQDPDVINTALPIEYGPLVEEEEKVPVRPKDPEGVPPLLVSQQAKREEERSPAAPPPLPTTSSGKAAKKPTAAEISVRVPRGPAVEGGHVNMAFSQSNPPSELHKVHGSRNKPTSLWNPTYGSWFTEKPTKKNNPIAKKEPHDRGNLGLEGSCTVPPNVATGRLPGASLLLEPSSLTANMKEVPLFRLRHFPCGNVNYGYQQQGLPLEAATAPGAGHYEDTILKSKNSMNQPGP

382 unique human kinases [8] = target: T8, 382 unique human kinases (Homo sapiens, UniProt P22607, K650E); settings: FGFR3 (K650E), 10 uM; for remaining activity at 10 µM: read-out: % Enzyme Activity (relative to DMSO controls)
T8 construct: purchased Reaction Biology (HotSpot contract assay)
T8 sequence (P22607 23-806 K650E): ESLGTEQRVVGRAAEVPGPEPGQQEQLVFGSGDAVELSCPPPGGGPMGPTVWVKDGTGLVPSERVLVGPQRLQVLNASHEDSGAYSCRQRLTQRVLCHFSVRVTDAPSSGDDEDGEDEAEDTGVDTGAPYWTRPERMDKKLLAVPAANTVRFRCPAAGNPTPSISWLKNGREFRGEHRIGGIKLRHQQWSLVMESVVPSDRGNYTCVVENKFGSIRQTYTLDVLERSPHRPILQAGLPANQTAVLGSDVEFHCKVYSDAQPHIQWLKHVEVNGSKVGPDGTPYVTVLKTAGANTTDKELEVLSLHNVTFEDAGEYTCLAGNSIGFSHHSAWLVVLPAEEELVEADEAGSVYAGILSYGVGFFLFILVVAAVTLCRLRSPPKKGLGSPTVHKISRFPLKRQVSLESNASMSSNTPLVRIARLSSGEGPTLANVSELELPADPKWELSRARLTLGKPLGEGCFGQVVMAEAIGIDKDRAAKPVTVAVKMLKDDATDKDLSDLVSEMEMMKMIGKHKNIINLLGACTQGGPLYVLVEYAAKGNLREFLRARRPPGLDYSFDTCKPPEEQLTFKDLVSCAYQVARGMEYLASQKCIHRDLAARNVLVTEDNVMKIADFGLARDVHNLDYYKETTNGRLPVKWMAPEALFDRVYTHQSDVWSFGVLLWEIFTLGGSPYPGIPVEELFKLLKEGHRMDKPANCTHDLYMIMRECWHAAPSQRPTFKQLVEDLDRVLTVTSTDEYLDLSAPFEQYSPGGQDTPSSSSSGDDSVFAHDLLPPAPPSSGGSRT

382 unique human kinases [9] = target: T9, 382 unique human kinases (Homo sapiens, UniProt P12931, T341M); settings: kinase c-Src (T341M), compound 10 uM; for remaining activity at 10 µM: read-out: % Enzyme Activity (relative to DMSO controls)
T9 construct: purchased Reaction Biology (HotSpot contract assay)

382 unique human kinases [10] = target: T10, 382 unique human kinases (Homo sapiens, UniProt Q86SG6); settings: NEK8, [ATP] 100 µM, compound 10 uM; for remaining activity at 10 µM: read-out: % Enzyme Activity (relative to DMSO controls)
T10 construct: purchased Reaction Biology (HotSpot contract assay)
T10 sequence (Q86SG6 1-692): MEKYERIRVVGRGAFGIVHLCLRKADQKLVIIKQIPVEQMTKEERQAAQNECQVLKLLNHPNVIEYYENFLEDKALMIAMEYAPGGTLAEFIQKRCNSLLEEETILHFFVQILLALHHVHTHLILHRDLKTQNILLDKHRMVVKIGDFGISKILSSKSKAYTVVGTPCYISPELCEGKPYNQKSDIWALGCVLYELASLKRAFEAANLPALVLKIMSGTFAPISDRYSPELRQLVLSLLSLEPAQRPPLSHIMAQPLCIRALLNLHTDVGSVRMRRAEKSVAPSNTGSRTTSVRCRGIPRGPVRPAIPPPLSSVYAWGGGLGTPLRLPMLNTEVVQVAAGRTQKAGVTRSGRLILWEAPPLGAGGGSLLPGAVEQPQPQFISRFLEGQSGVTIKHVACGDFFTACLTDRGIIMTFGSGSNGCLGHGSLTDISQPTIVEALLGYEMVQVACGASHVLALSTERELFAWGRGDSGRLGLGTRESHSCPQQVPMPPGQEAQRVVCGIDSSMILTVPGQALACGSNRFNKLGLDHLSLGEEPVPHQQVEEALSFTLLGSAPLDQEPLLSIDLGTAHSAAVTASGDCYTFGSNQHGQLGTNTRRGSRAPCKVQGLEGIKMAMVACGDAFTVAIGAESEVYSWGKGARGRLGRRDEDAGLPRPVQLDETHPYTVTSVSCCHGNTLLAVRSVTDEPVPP

382 unique human kinases [11] = target: T11, 382 unique human kinases (Homo sapiens, UniProt P51813); settings: BMX/ETK, [ATP] 50 µM, compound 10 uM; for remaining activity at 10 µM: read-out: % Enzyme Activity (relative to DMSO controls)
T11 construct: purchased Reaction Biology (HotSpot contract assay)
T11 sequence (P51813 1-675): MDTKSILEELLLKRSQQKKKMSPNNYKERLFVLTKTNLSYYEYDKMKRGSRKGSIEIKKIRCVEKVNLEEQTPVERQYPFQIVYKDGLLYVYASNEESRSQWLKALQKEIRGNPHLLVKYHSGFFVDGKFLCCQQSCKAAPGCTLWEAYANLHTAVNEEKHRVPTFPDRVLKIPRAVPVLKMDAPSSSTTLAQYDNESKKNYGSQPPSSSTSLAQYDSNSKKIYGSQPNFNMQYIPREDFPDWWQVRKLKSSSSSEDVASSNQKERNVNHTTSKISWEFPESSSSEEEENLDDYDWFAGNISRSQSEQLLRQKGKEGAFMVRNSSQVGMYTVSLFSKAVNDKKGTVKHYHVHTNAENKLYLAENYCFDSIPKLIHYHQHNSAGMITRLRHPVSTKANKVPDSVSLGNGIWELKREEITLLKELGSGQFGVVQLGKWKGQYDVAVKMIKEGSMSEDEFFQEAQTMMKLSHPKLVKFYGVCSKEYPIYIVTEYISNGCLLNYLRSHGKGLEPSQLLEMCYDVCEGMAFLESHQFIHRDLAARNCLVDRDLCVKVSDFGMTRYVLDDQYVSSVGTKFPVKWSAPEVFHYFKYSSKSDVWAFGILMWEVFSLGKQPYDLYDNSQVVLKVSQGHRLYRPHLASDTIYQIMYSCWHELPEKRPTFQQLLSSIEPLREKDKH

382 unique human kinases [12] = target: T12, 382 unique human kinases (Homo sapiens, UniProt P06241, Y531F); settings: FYN (Y531F), [ATP] 5 µM, compound 10 uM; for remaining activity at 10 µM: read-out: % Enzyme Activity (relative to DMSO controls)
T12 construct: purchased Reaction Biology (HotSpot contract assay)
T12 sequence (P06241 whole entry Y531F): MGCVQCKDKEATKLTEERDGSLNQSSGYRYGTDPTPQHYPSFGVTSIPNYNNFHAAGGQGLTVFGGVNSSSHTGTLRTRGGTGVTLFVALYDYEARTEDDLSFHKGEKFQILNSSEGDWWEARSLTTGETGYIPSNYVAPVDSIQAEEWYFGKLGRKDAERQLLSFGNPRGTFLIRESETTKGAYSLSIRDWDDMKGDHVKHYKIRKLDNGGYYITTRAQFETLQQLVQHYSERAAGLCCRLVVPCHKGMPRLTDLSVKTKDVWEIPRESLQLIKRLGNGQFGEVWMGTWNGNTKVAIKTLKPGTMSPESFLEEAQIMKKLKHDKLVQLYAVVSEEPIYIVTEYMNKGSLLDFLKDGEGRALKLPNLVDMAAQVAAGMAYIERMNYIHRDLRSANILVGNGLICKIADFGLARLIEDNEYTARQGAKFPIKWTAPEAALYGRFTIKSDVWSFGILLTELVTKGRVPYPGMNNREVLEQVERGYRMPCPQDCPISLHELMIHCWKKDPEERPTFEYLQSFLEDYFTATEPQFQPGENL

[13] = kinase AMPK(A2/B1/G1), compound 10 uM
[14] = kinase AMPK(A2/B2/G1), compound 10 uM
[15] = kinase AMPK(A2/B2/G2), compound 10 uM

## CC(C)c1cc(-c2n[nH]c(=O)n2-c2ccc3c(ccn3C)c2)c(O)cc1O [Ganetespib (STA9090)]
382 unique human kinases [1]
  remaining activity at 10 µM: 75.4%
382 unique human kinases [2]
  remaining activity at 10 µM: 119%
382 unique human kinases [3]
  remaining activity at 10 µM: 102%
382 unique human kinases [4]
  remaining activity at 10 µM: 70.3%
382 unique human kinases [5]
  remaining activity at 10 µM: 82.7%
382 unique human kinases [6]; AMPK(A2/B2/G3), 10 uM
  remaining activity at 10 µM: 65.8%
382 unique human kinases [6]; [13]
  remaining activity at 10 µM: 80.4%
382 unique human kinases [6]; [14]
  remaining activity at 10 µM: 82.1%
382 unique human kinases [6]; [15]
  remaining activity at 10 µM: 84.6%
382 unique human kinases [7]
  remaining activity at 10 µM: 65.1%
382 unique human kinases [8]
  remaining activity at 10 µM: 66.5%
382 unique human kinases [9]
  remaining activity at 10 µM: 86.3%

## CC(C)c1cc(-c2n[nH]c(=O)n2-c2ccc3c(ccn3C)c2)c(O)cc1O [Ganetespib]
382 unique human kinases [10]
  remaining activity at 10 µM: 56.7%
382 unique human kinases [11]
  remaining activity at 10 µM: 46.7%
382 unique human kinases [12]
  remaining activity at 10 µM: 7.4%

## CCNC(=O)c1noc(-c2cc(C(C)C)c(O)cc2O)c1-c1ccc(CN2CCOCC2)cc1 [Luminespib (AUY-922)]
382 unique human kinases [1]
  % Enzyme Activity (relative to DMSO controls): 98.29%
  remaining activity at 10 µM: 99.3%
382 unique human kinases [2]
  % Enzyme Activity (relative to DMSO controls): 107.77%
  remaining activity at 10 µM: 108%
382 unique human kinases [3]
  % Enzyme Activity (relative to DMSO controls): 105.08%
  remaining activity at 10 µM: 106%
382 unique human kinases [4]
  % Enzyme Activity (relative to DMSO controls): 73.41%
  remaining activity at 10 µM: 74.1%
382 unique human kinases [5]
  % Enzyme Activity (relative to DMSO controls): 102.56%
  remaining activity at 10 µM: 103%
382 unique human kinases [6]; AMPK(A2/B2/G3), 10 uM
  % Enzyme Activity (relative to DMSO controls): 103.09%
  remaining activity at 10 µM: 104%
382 unique human kinases [6]; [13]
  % Enzyme Activity (relative to DMSO controls): 102.86%
  remaining activity at 10 µM: 103%
382 unique human kinases [6]; [14]
  % Enzyme Activity (relative to DMSO controls): 94.15%
  remaining activity at 10 µM: 94.2%
382 unique human kinases [6]; [15]
  % Enzyme Activity (relative to DMSO controls): 96.15%
  remaining activity at 10 µM: 97.4%
382 unique human kinases [7]
  % Enzyme Activity (relative to DMSO controls): 101.49%
  remaining activity at 10 µM: 102%
382 unique human kinases [8]
  % Enzyme Activity (relative to DMSO controls): 98.78%
  remaining activity at 10 µM: 101%
382 unique human kinases [9]
  % Enzyme Activity (relative to DMSO controls): 97.19%
  remaining activity at 10 µM: 98.3%

## CCNC(=O)c1noc(-c2cc(C(C)C)c(O)cc2O)c1-c1ccc(CN2CCOCC2)cc1 [Luminespib]
382 unique human kinases [10]
  % Enzyme Activity (relative to DMSO controls): 93.87%
  remaining activity at 10 µM: 94.8%
382 unique human kinases [11]
  % Enzyme Activity (relative to DMSO controls): 102.71%
  remaining activity at 10 µM: 103%
382 unique human kinases [12]
  % Enzyme Activity (relative to DMSO controls): 23.48%
  remaining activity at 10 µM: 24.2%
